Results from the NIST ThermoML archive (doi:10.1016/j.jct.2006.10.017).

What was measured:
[1] = 101 kPa, Liquid
[2] = refractive index (Na D-line) (dimensionless); conditions: 101.33 kPa, Liquid
[3] = refractive index (Na D-line) (dimensionless); xn = mol fraction of the nth substance listed; conditions: 101 kPa, Liquid
[4] = xn = mol fraction of the nth substance listed; conditions: 101 kPa, Liquid

CCCCn1cc[n+](C)c1.COS(=O)(=O)[O-] [1-butyl-3-methylimidazolium methyl sulfate]
Conditions	mass density, 293.15 K [kg/m3]	mass density, 298.15 K [kg/m3]	mass density, 303.15 K [kg/m3]	refractive index, 293.15 K	refractive index, 298.15 K	refractive index, 303.15 K	speed of sound, 293.15 K [m/s]	speed of sound, 298.15 K [m/s]	speed of sound, 303.15 K [m/s]
[1]	1215.6	1212.2	1208.8	–	–	–	1671	1658	1645
[2]	–	–	–	1.48077	1.47942	1.47806	–	–	–

CCO [ethanol]
Conditions	mass density, 293.15 K [kg/m3]	mass density, 298.15 K [kg/m3]	mass density, 303.15 K [kg/m3]	refractive index, 293.15 K	refractive index, 298.15 K	refractive index, 303.15 K	speed of sound, 293.15 K [m/s]	speed of sound, 298.15 K [m/s]	speed of sound, 303.15 K [m/s]
[1]	789.3	785.1	780.7	–	–	–	1160	1143	1127
[2]	–	–	–	1.36138	1.35929	1.35725	–	–	–

CCCCCCCC[n+]1ccn(C)c1.F[P-](F)(F)(F)(F)F [1-octyl-3-methylimidazolium hexafluorophosphate]
Conditions	mass density, 293.15 K [kg/m3]	mass density, 298.15 K [kg/m3]	mass density, 303.15 K [kg/m3]	refractive index, 293.15 K	refractive index, 298.15 K	refractive index, 303.15 K	speed of sound, 293.15 K [m/s]	speed of sound, 298.15 K [m/s]	speed of sound, 303.15 K [m/s]
[1]	1239.6	1235.7	1231.9	–	–	–	1424	1408	1393
[2]	–	–	–	1.4244	1.42302	1.42165	–	–	–

COS(=O)(=O)[O-].Cn1cc[n+](C)c1 [1,3-dimethylimidazolium methylsulfate]
Conditions	mass density, 293.15 K [kg/m3]	mass density, 298.15 K [kg/m3]	mass density, 303.15 K [kg/m3]	refractive index, 293.15 K	refractive index, 298.15 K	refractive index, 303.15 K	speed of sound, 293.15 K [m/s]	speed of sound, 298.15 K [m/s]	speed of sound, 303.15 K [m/s]
[1]	1330.9	1327.2	1323.7	–	–	–	1826	1813	1801
[2]	–	–	–	1.48392	1.4827	1.48129	–	–	–

CCCCn1cc[n+](C)c1.F[P-](F)(F)(F)(F)F [1-butyl-3-methylimidazolium hexafluorophosphate]
Conditions	mass density, 293.15 K [kg/m3]	mass density, 298.15 K [kg/m3]	mass density, 303.15 K [kg/m3]	refractive index, 293.15 K	refractive index, 298.15 K	refractive index, 303.15 K	speed of sound, 293.15 K [m/s]	speed of sound, 298.15 K [m/s]	speed of sound, 303.15 K [m/s]
[1]	1371.6	1367.3	1363	–	–	–	1455	1443	1431
[2]	–	–	–	1.41069	1.40937	1.40808	–	–	–

CCCCn1cc[n+](C)c1.F[P-](F)(F)(F)(F)F [1-butyl-3-methylimidazolium hexafluorophosphate] + CCO
Conditions	mass density, 293.15 K [kg/m3]	mass density, 298.15 K [kg/m3]	mass density, 303.15 K [kg/m3]	refractive index, 293.15 K	refractive index, 298.15 K	refractive index, 303.15 K	speed of sound, 293.15 K [m/s]	speed of sound, 298.15 K [m/s]	speed of sound, 303.15 K [m/s]
[3], x1 = 0.0009	–	–	–	1.36162	1.35956	1.35751	–	–	–
[3], x1 = 0.0021	–	–	–	1.36196	1.3599	1.35781	–	–	–
[3], x1 = 0.0033	–	–	–	1.36222	1.36018	1.35812	–	–	–
[3], x1 = 0.0056	–	–	–	1.36281	1.3608	1.35871	–	–	–
[3], x1 = 0.496	–	–	–	1.40171	1.40034	1.3994	–	–	–
[3], x1 = 0.5032	–	–	–	1.40193	1.40055	1.39959	–	–	–
[3], x1 = 0.5981	–	–	–	1.40432	1.40294	1.40176	–	–	–
[3], x1 = 0.7045	–	–	–	1.40639	1.40507	1.40376	–	–	–
[3], x1 = 0.8003	–	–	–	1.4079	1.40656	1.40522	–	–	–
[3], x1 = 0.9002	–	–	–	1.4093	1.40799	1.40666	–	–	–
[3], x1 = 0.9834	–	–	–	1.41052	1.40923	1.40795	–	–	–
[3], x1 = 1	–	–	–	1.41069	1.40937	1.40808	–	–	–
[4], x1 = 0.0009	791.5	787.4	783.1	–	–	–	1163	1144	1126
[4], x1 = 0.0021	794.3	790.1	785.8	–	–	–	1162	1145	1128
[4], x1 = 0.0033	797	792.8	788.5	–	–	–	1164	1146	1128
[4], x1 = 0.0056	802.3	798.1	793.8	–	–	–	1166	1147	1130
[4], x1 = 0.496	1246.7	1242.2	1237.9	–	–	–	1371	1359	1347
[4], x1 = 0.5032	1249.4	1245	1240.7	–	–	–	1373	1361	1349
[4], x1 = 0.5981	1282	1277.6	1273.4	–	–	–	1397	1384	1372
[4], x1 = 0.7045	1311.6	1307.3	1303	–	–	–	1417	1404	1391
[4], x1 = 0.8003	1333.9	1329.6	1325.4	–	–	–	1431	1418	1405
[4], x1 = 0.9002	1354.1	1349.9	1345.7	–	–	–	1443	1430	1418
[4], x1 = 0.9834	1368.8	1364.7	1360.5	–	–	–	1454	1440	1428
[4], x1 = 1	1371.6	1367.3	1363	–	–	–	1455	1443	1431

CCCCCCn1cc[n+](C)c1.F[P-](F)(F)(F)(F)F [1-hexyl-3-methylimidazolium hexafluorophosphate]
Conditions	mass density, 293.15 K [kg/m3]	mass density, 298.15 K [kg/m3]	mass density, 303.15 K [kg/m3]	refractive index, 293.15 K	refractive index, 298.15 K	refractive index, 303.15 K	speed of sound, 293.15 K [m/s]	speed of sound, 298.15 K [m/s]	speed of sound, 303.15 K [m/s]
[1]	1297.9	1293.7	1289.6	–	–	–	1438	1424	1411
[2]	–	–	–	1.41923	1.41787	1.41643	–	–	–
